For experiment [1], the system named is mouse model having dermatitis induced by oxazolone (back skin). Nature of the experiment: Visual identification of dermatitis inhibition, mice with oxazolone-induced dermatitis on back. Type of experiment: in vivo, HR-1 (hairless) mouse. The conditions noted are these: 150 μl at 500 nM applied 5 times a week, total 19 times, FIG. 1. How it is done: Specifically, 150 μl of 5% oxazolone (4-ethoxymethylene-2-phenyl-2-oxazolin-5-one) was applied to a back skin of a 6-week-old HR-1 (hairless) mouse, and then 150 μl of oxazolone (4-ethoxymethylene-2-phenyl-2-oxazolin-5-one) diluted into 0.1% was applied thereto 3 times a week, 11 times in total. Thus, the back skin inflammatory reaction was induced. Thereafter, 150 μl of the acylhydrazone derivative compound at a concentration of 500 nM was applied thereto 5 times a week, a total of 19 times. […] A negative control treated with only ethanol as a solvent and a positive control treated with only oxazolone were reflected in the test. The number of mice in each test group was maintained at 10 or more, and the experiment was repeated twice.

Experiment [2] has as its system IL-4, IL-13 and IL-2 mRNA. Nature of the experiment: qPCR of inflammatory cytokine mRNA in back skin tissue of dermatitis-induced mice. Format: in vivo, HR-1 (hairless) mouse. Conditions: FIG. 2A to 2C; for inflammatory cytokine expression compared with Cyclosporine A group: comparison with test group treated with Cyclosporine A; for expression level of the inflammatory cytokine (IL-4, IL-13, IL-2 mRNA) in skin tissue: vs positive control treated with only oxazolone, qPCR. An excerpt: Inflammatory cytokines most associated with development of dermatitis such as atopic dermatitis are known as IL-4 and IL-13 which are secreted primarily from Th2 T cells. To further identify the anti-inflammatory effect of the acylhydrazone derivative compounds in mice in which dermatitis is induced by oxazolone. A mRNA level of IL-2 as secreted from Th2 T cells and mRNA levels of IL-4 and IL-13 as the cytokines most closely related to the development of dermatitis in the inflammatory tissue were quantified.
Specifically, a skin tissue was collected from the dermatitis-induced mice produced in Example 1 and crushed using a tissue disruptor. The crushed tissue powder was dissolved in a solution of Trizol reagent (Sigma company), and RNA was extracted therefrom using an RNeasy mini kit (Qiagen company). The extracted RNA was reverse transcribed into cDNA using an ImProm-II™ Reverse Transcription kit (Promega company). Then, using a CFX96™ Real-Time PCR Detection System (Bio-Rad company), levels of the cytokines present in the skin tissue was measured based on a qPCR (quantitative PCR) method.

The subject of experiment [3] is K14 (Keratin 14), K1 (Keratin 1), FLG (Filaggrin gene) mRNA. Nature of the experiment: qPCR of epidermal hyperplasia markers in back skin tissue of dermatitis-induced mice. Type of experiment: in vivo, HR-1 (hairless) mouse. The conditions noted are these: FIG. 3B to 3D. An excerpt:
When dermatitis is induced, a pathological symptom such as epidermal hyperplasia which thickens the skin is induced.

In experiment [4] the test system is mouse model having dermatitis induced by oxazolone (ear). Nature of the experiment: Visual identification of dermatitis inhibition, mice with oxazolone-induced dermatitis in ear. Conditions: 20 μl at 500 nM, total 5 times, 30 minutes after oxazolone, FIG. 4. Type of experiment: in vivo. How it is done: Specifically, 150 μl of 3% concentration of oxazolone was applied to an abdominal skin of a 6-week-old mouse to induce an immune response. 20 μl of the same compound diluted to 0.5% concentration was applied to the mouse's ear, total 5 times a day to induce an inflammatory reaction. Thereafter, at 30 minutes after the oxazolone application, 20 μl of each of the acylhydrazone derivative compounds was applied thereto at a concentration of 500 nM and total 5 times.
Moreover, the negative control treated only with ethanol as a solvent and the positive control treated only with oxazolone were reflected in the experiment. The number of mice in each test group was maintained at 10 or more, and the experiment was repeated twice.

Experiment [5] concerns ear skin tissue of dermatitis-induced mice. The experiment can be described thus: Histopathological analysis (Hematoxylin and Eosin) of ear skin tissue. Format: in vivo, mouse. The conditions noted are these: H&E staining, FIG. 5. An excerpt: For pathological observation of the skin after completion of the application experiment, an ear skin tissue of each mouse was collected and stained with Hematoxylin and Eosin.

Experiment [6] has as its system IL-4, IL-13 and IL-2 mRNA. Nature of the experiment: qPCR of inflammatory cytokine mRNA in ear skin tissue of dermatitis-induced mice. Type of experiment: in vivo, mouse. Conditions: FIG. 6A to 6C. An excerpt: Inflammatory cytokines most associated with the development of dermatitis, such as atopic dermatitis are known as IL-4 and IL-13 which are secreted primarily from Th2 T cells. In order to further identify the anti-inflammatory effect of the acylhydrazone derivative compound in mice with dermatitis induced by oxazolone in Example 4, an ear skin tissue was collected to quantify the mRNA levels of IL-2 secreted from Th2 T cells, along with those of IL-4 and IL-13.
Specifically, ear skin tissues were collected from dermatitis-induced mice prepared in Example 4 and crushed using a tissue disruptor. The crushed tissue powder was dissolved in a solution of Trizol reagent (Sigma company), and RNA was extracted using an RNeasy mini kit (Qiagen company). After reverse transcription of the extracted RNA with a cDNA using ImProm-II™ Reverse Transcription kit (Promega company), a level of cytokines present in a skin tissue was measured using a CFX96 Real-Time PCR Detection System (Bio-Rad company) via a qPCR method.

For another experiment, the system named is K14 and K1 mRNA. Nature of the experiment: qPCR of epidermal hyperplasia markers in ear skin tissue of dermatitis-induced mice. Type of experiment: in vivo, mouse. Conditions: FIG. 8A and 8B. An excerpt: When dermatitis is induced, pathological symptoms such as epidermal hyperplasia which thickens the skin are induced.
The test system of experiment [7] is phosphorylation of p65 (RelA), NF-κB signaling pathway. The experiment can be described thus: Western blot of phosphorylated p65 in RAW macrophage cell line (NF-κB signaling pathway). Format: cell-based, mice. The conditions noted are these: RAW cells, with NF-κB inducing factors (tumor necrosis factor-α, lipopolysaccharide, or the like), 12 to 24 hours; Western blotting; FIG. 9. How it is done: To further identify the mechanism of action involved in the anti-inflammatory effect by the acylhydrazone derivative compound, RAW cell lines as mice-derived macrophage immune cell lines were incubated. We observed the effect of the compound according to the present disclosure on NF-κB (nuclear factor kappa-light-chain-enhancer of activated B cells) signaling pathway involved in the production of inflammatory cytokines. The NF-κB signaling pathway is involved in inflammatory reactions. In particular, it is known that when phosphorylation of p65 (RelA) is induced, phosphorylated p65 moves to the nucleus of immune cells and induces an expression of cytokines that cause inflammatory reactions.
Specifically, after incubating a predetermined amount of RAW cells (5×10^5 to 10×10^5 cells/well for a 6-well plate) in DMEM medium (containing 10% fetal calf serum), WCI-1004, WCI-1015, and WCI-1031 compounds together with factors (tumor necrosis factor-α, lipopolysaccharide, or the like) inducing the NF-κB signal transduction were applied thereto for 12 to 24 hours. A proteolytic inhibitor and a dephosphorylation inhibitor was added to RIPA lysis and extraction buffer (Thermofisher company). Protein was extracted from the RAW cells. The Western blotting process used a method commonly used in the technical field to which the present disclosure belongs, and an antibody specific to phosphorylated p65 employed a product from Cell Signaling Technology company.

The text below walks through data of patent publication US11446281B2, “Anti-inflammatory composition comprising acylhydrazone derivative” (KOREA RESEARCH INSTITUTE OF BIOSCIENCE AND BIOTECHNOLOGY, priority 2018, dated 2022).

As for `Cc1c(/C=N/NC(=O)c2cc3c(ccc4ccccc43)o2)c2ccccc2n1C` [WCI-1015], in experiment [1], the “skin condition (visual), skin inflammatory response” value is given as “skin conditions very similar to those of the negative control”. Also, in experiment [2], the “inflammatory cytokine expression compared with Cyclosporine A group” value is listed as “lower levels of inflammatory cytokine expression than that in the skin tissue of the test group treated with Cyclosporine A” and the “expression level of the inflammatory cytokine (IL-4, IL-13, IL-2 mRNA) in skin tissue” value (shortened to “expression level … in skin tissue”) is recorded as “significantly reduced”. Besides, the “mRNA expression levels of K14, K1 and FLG (epithelial hyperplasia)” value (shortened to “mRNA expression levels of K14”) in experiment [3] is “restored to normal levels”. Also, in experiment [4], the “skin condition (visual), skin inflammatory reaction” value was “a skin condition very similar to that of the negative control”. Further, in experiment [5], the “entire thickness of the skin” value is on record as “reduced to a thickness very similar to that of the negative control” and the “thickness of the epithelium” value was “reduced to a thickness very similar to that of the negative control”. Also, the “level of cytokine expression (IL-4, IL-13, IL-2 mRNA) in ear skin tissue” value (“level of cytokine expression” for short) in experiment [6] is given as 50 % of the cytokine expression level of the positive control. For the same compound, the “expression levels of K14 and K1 (epithelial hyperplasia)” value (“expression levels of K14 and K1” for short) in the experiment on K14 and K1 mRNA was “restored to a normal level”. For the same compound, the “phosphorylation of p65 (RelA)” value in experiment [7] is on record as “effectively suppressed”.

As for `COC(=O)Cn1c(C)c(/C=N/NC(=O)c2cc3c(ccc4ccccc43)o2)c2ccccc21` [WCI-1031, methyl(E)-2-(2-methyl-3-((2-(naphtho[2,1-b]furan-2-carbonyl)hydrazono)methyl)-1H-indole-1-yl)acetate], the “skin condition (visual), skin inflammatory response” value in experiment [1] is “skin conditions very similar to those of the negative control”. Moreover, in experiment [2], the “inflammatory cytokine expression compared with Cyclosporine A group” value is “lower levels of inflammatory cytokine expression than that in the skin tissue of the test group treated with Cyclosporine A” and the “expression level … in skin tissue” value was “significantly reduced”. In addition, the “mRNA expression levels of K14” value in experiment [3] is listed as “restored to normal levels”. Moreover, in experiment [4], the “skin condition (visual), skin inflammatory reaction” value is listed as “a skin condition very similar to that of the negative control”. Also, in experiment [5], the “entire thickness of the skin” value is recorded as “reduced to a thickness very similar to that of the negative control” and the “thickness of the epithelium” value was “reduced to a thickness very similar to that of the negative control”. Also, the “level of cytokine expression” value in experiment [6] is 50 % of the cytokine expression level of the positive control. Also, in the experiment with K14 and K1 mRNA, the “expression levels of K14 and K1” value is listed as “restored to a normal level”. Besides, the “phosphorylation of p65 (RelA)” value in experiment [7] was “effectively suppressed”.

On to `CCOC(=O)Cn1c(C)c(/C=N/NC(=O)c2cc3c(ccc4ccccc43)o2)c2ccccc21` [WCI-1004, ethyl(2-methyl-3(E)-{[(naphtho[2,1-b]furan-2-ylcarbonyl)hydrazono]methyl}-1H-indole-1-yl)acetate], for which, in experiment [1], the “skin condition (visual), skin inflammatory response” value is “skin conditions very similar to those of the negative control”. Moreover, in experiment [2], the “inflammatory cytokine expression compared with Cyclosporine A group” value is given as “lower levels of inflammatory cytokine expression than that in the skin tissue of the test group treated with Cyclosporine A” and the “expression level … in skin tissue” value is “significantly reduced”. The “mRNA expression levels of K14” value in experiment [3] is “restored to normal levels”. Moreover, the “skin condition (visual), skin inflammatory reaction” value in experiment [4] was “a skin condition very similar to that of the negative control”. In experiment [5], the “entire thickness of the skin” value is “reduced to a thickness very similar to that of the negative control” and the “thickness of the epithelium” value is “reduced to a thickness very similar to that of the negative control”. The “level of cytokine expression” value in experiment [6] is recorded as 50 % of the cytokine expression level of the positive control. Further, the “expression levels of K14 and K1” value in the experiment with K14 and K1 mRNA is “restored to a normal level”. The “phosphorylation of p65 (RelA)” value in experiment [7] is listed as “effectively suppressed”.
